{"source": "paper PMC6384574", "about": "“Colistin Use in Patients with Chronic Kidney Disease: Are We Underdosing Patients?” (Molecules, 2019)", "key": {"[1]": {"experiment": "Colistin plasma concentration at steady state (Css,avg) by HPLC in CMS-treated patients with CKD", "assay_type": "in vivo, human", "description": "We conducted a prospective observational study in a cohort of patients with CKD and infections caused by extensively drug-resistant P. aeruginosa treated with intravenous CMS for at least 48 h. The study was carried out at Hospital del Mar, a tertiary care university hospital in Barcelona (Spain), from January 2010 to August 2018. The study was approved by the local ethics committee (Comité Ètic d’Investigació Clínica del Parc de Salut Mar. Approval number 2011/4501/I). Exclusion criteria were age <18 years, pregnancy, and breast-feeding during the study period. A pharmacy-generated alarm system was used to identify patients under CMS treatment. […]\nThe dosage regimen and dose adjustments were determined by the treating physician. […]\nBlood samples were obtained just before the next dose on day 3–4 of the treatment. […] Concentrations of CMS and formed colistin in plasma were measured using a validated high-performance liquid chromatography (HPLC) method. The limit of quantification of the HPLC methods for colistin and CMS in plasma were 0.20 and 0.50 mg/L, respectively. As the plasma concentration-time profiles of formed colistin are almost flat, measured colistin concentrations were regarded as Css,avg. The percentage of patients achieving the therapeutic target defined as a Css,avg of 2 mg/L was also analyzed. […] We calculated the expected Css based on the formula of Nation et al.."}, "[2]": {"experiment": "Worsened renal function (nephrotoxicity) at end of treatment, RIFLE criteria", "details": "multivariate logistic regression", "experimental": "(§2) Patient data included demographic information, SOFA score [31], Charlson comorbidity index [32], CMS treatment (indication, daily and total cumulative dose measured in millions of IU and treatment duration). GFR at baseline and at EOT was calculated using the abbreviated Modification of Diet in Renal Disease equation (MDRD-4) [33]. WRF was defined as a decrease in GFR ≥25% and was classified according to the Risk, Injury, Failure, Loss of kidney function, and End-stage kidney disease (RIFLE) criteria [34]. Patients with WRF were followed up until GFR recovery or until hospital discharge. Information was collected on the concomitant use of other potential nephrotoxic drugs such as aminoglycosides, vancomycin, angiotensin II receptor blockers, angiotensin-converting enzyme (ACE) inhibitors, loop diuretics, intravenous dye, amphotericin B and non-steroidal anti-inflammatory drugs (NSAIDs), as well as the need for vasopressor drugs or discontinuation of CMS due to nephrotoxicity. Combination therapy with other antibiotics with potential activity or synergy with colistin was assessed.\n(§3) Dichotomous data were compared using a χ^2 or Fisher’s exact test. Normally distributed continuous data are expressed as means and standard deviations (SD), and were compared using the t-test. Otherwise, values are presented as means with interquartile range (IQR) and were compared using the Mann-Whitney U-test. The baseline and clinical characteristics of patients receiving different CMS doses were compared using the ANOVA or Kruskal-Wallis test. Multivariate analysis of risk factors for colistin-associated nephrotoxicity was conducted using logistic regression. Univariate analyses were performed separately for each of the risk factor variables to ascertain the odds ratio (OR) and 95% confidence interval (CI). All clinically important covariates and those with p < 0.3 in the univariate analyses were included in the multivariate analysis."}, "[3]": {"details": "cited from earlier work", "text": "Colistin use has reemerged in recent years for the treatment of multidrug-resistant Gram-negative infections, which has prompted the performance of a large number of clinical and PK studies of its use in the last decade. However, there is still little pharmacological information in patients at high risk of under- or overdosing, such as those with CKD. […] CMS, the pro-drug, is renally eliminated by glomerular filtration and active tubular secretion. Previ ... || Recent toxicodynamic studies performed in the general population indicate that the risk of nephrotoxicity in patients receiving CMS increases with plasma colistin concentration exceeding 2.5 mg/L [13, 15]. This point, together with the lack of information on the minimum inhibitory concentrations (MIC) at the beginning of CMS treatment, have led to consideration of an average Css,avg of 2 mg/L as a target when initiating therapy. The median Css,avg in this study was 0.9 mg/L, which is far below the above-mentioned recommended 2 mg/L [11] but is also below those reported in previous ... || Blood samples were obtained just before the next dose on day 3–4 of the treatment. […] Concentrations of CMS and formed colistin in plasma were measured using a validated high-performance liquid chromatography (HPLC) method. The limit of quantification of the HPLC methods for colistin and CMS in plasma were 0.20 and 0.50 mg/L, respectively. As the plasma concentration-time profiles of formed colistin are almost flat, measured colistin concentrations were regarded as Cs ..."}, "[4]": {"details": "human, in vivo, iv"}, "[5]": {"experiment": "30-day all-cause mortality in CMS-treated CKD patients", "assay_type": "in vivo, human", "description": "(§1) CKD was defined as kidney damage or GFR <60 mL/min/1.73 m^2 for 3 months or more, irrespective of cause. Infections were defined according to the Centers for Disease Control and Prevention. Clinical failure was defined as a lack of improvement in patients or in at least one of the initial symptoms, worsening or death. Clinical cure was defined as either the absence of symptoms or as a consistent improvement in the signs and symptoms of the infection. Thirty-day all-cause mortality was considered as death from any cause during the 30 days following EOT. Combined antibiotic treatment consisted of CMS plus meropenem or CMS plus amikacin."}, "[6]": {"details": "human, in vivo; cited from earlier work", "description": "Recent toxicodynamic studies performed in the general population indicate that the risk of nephrotoxicity in patients receiving CMS increases with plasma colistin concentration exceeding 2.5 mg/L [13, 15]. This point, together with the lack of information on the minimum inhibitory concentrations (MIC) at the beginning of CMS treatment, have led to consideration of an average Css,avg of 2 mg/L as a target when initiating therapy. […] Rates of nephrotoxicity in patients treated with CMS range from 20% to 60% according to recent studies using standardized criteria to evaluate nephrotoxicity. Even though WRF was reversible in more than 50% of patients, the diagnosis and management of this complication during CMS treatment is a challenge in daily clinical practice, since nephrotoxicity is potentially related to worse clinical outcomes. In two previous studies by our group, the pre ..."}, "[7]": {"details": "in vivo", "experimental": "as §2, §3"}, "[8]": {"tested_on": "extensively drug-resistant Pseudomonas aeruginosa", "experiment": "Clinical cure / clinical failure in CKD patients treated with intravenous CMS", "assay_type": "in vivo", "description": "We conducted a prospective observational study in a cohort of patients with CKD and infections caused by extensively drug-resistant P. aeruginosa treated with intravenous CMS for at least 48 h. The study was carried out at Hospital del Mar, a tertiary care university hospital in Barcelona (Spain), from January 2010 to August 2018. The study was approved by the local ethics committee (Comité Ètic d’Investigació Clínica del Parc de Salut Mar. Approval number 2011/4501/I). Exclusion criteria were age <18 years, pregnancy, and breast-feeding during the study period. A pharmacy-generated alarm system was used to identify patients under CMS treatment. The study investigators performed the assessment from the first day of the treatment and informed consent was obtained from all participants or their legal representatives.\nas §1\nThe dosage regimen and dose adjustments were determined by the treating physician. Since this study was performed over more than 8 years, colistin daily doses varied during this time. From 2010 to 2014, dose adjustments were made according to the package insert’s recommended dosing as follows: GFR ≥76 mL/min/1.73 m^2, 4–6 million IU daily in three doses; GFR 40–75 mL/min/1.73 m^2, 2–3 million IU daily in two doses; GFR 25–40 mL/min/1.73 m^2, 1.5–2 million IU daily divided in one or two doses and; GFR <25 mL/min/1.73 m^2, 0.6–1 million IU daily every 36 h. In 2014, a new protocol based on our previous experience was implemented in our center and CMS was adjusted as follows: GFR ≥90 mL/min/1.73 m^2, 9 million IU daily in three doses; GFR 50–89 mL/min/1.73 m^2, 3 million IU every 12 h, GFR 10–49 mL/min/1.73 m^2, 3 million IU per day; GFR ≤10 mL/min/1.73 m^2, 2 million IU/day. However, the final dose was chosen by the treating physician. CMS (colistimethate formulation for intravenous use, GES Genéricos Españoles®, Las Rozas, Spain was diluted in 100 mL of physiological saline before intravenous administration over 30 min. Each vial contained 1 million IU of CMS (equivalent to 80 mg CMS)."}, "[9]": {"details": "Garonzik et al. pharmacokinetic study, ref [8]"}, "[10]": {"details": "diagnosis SSTI (skin and soft tissue infection)"}, "[11]": {"details": "diagnosis UTI (urinary tract infection)"}}, "note": "Positions of bridges follow the written chain, without caps; N, C: chain ends. Non-standard residues stand in square brackets, D forms with d. Residues, ends and D or L forms follow the SMILES beside them. *: point of attachment. X1 = CC[C@H](C)CCCCC(=O)*; Dab = NCC[C@H](N)C(=O)O", "data": [{"molecule": "CC[C@H](C)CCCCC(=O)N[C@@H](CCN)C(=O)N[C@H](C(=O)N[C@@H](CCN)C(=O)N[C@H]1CCNC(=O)[C@H]([C@@H](C)O)NC(=O)[C@H](CCN)NC(=O)[C@H](CCN)NC(=O)[C@H](CC(C)C)NC(=O)[C@@H](CC(C)C)NC(=O)[C@H](CCN)NC1=O)[C@@H](C)O", "note": "[colistin] (X1-[Dab]T[Dab][Dab][Dab][dL]L[Dab][Dab]T; lactam 4-C)", "values": [{"measurement": "Css,avg (colistin plasma concentration at steady-state), median (interquartile range)", "setting": "[1]; all CKD patients n = 59, iv CMS, median daily dose 3 million IU, blood just before next dose on day 3–4, plasma, HPLC", "result": 900, "unit": "ng/mL"}, {"measurement": "Css,avg", "setting": "[1]; patients with clinical cure (n = 43), unit printed in Table 1 only", "result": 800, "unit": "ng/mL"}, {"measurement": "OR of Css as independent risk factor for colistin-associated nephrotoxicity at the end of treatment", "setting": "[2]; 95% CI 1.02–10.1, p = 0.047", "result": 3.21}, {"measurement": "Colistin Css,avg, median", "setting": "[3]; [9]", "result": 2360, "unit": "ng/mL"}, {"measurement": "Colistin Css,avg, range", "setting": "[3]; [9]", "result": "480 to 9380", "unit": "ng/mL"}, {"measurement": "Colistin plasma concentration in previous studies in the general population", "setting": "[3]; IQR 0.11–5.99, ref [7],[13]", "result": 1.06}, {"measurement": "Half-life", "setting": "[3]; assumed for steady state on day 3–4, ref [10]", "result": "approximately 14 h"}]}, {"molecule": "colistimethate sodium [CMS]", "values": [{"measurement": "Neurotoxicity", "setting": "[4]", "result": "none of the patients in this cohort developed neurotoxicity"}, {"measurement": "30-day all-cause mortality", "setting": "[5]; patients with clinical failure (n = 16)", "result": "13 (81.3) n (%)"}, {"measurement": "30-day all-cause mortality", "setting": "[5]; patients without nephrotoxicity at EOT (n = 39)", "result": "10 (25.64) n (%)"}, {"measurement": "Rates of nephrotoxicity in patients treated with CMS", "setting": "[6]", "result": "20-60%"}, {"measurement": "GFR at EOT, median (interquartile range)", "setting": "[7]", "result": "30.1 (6.51–81.4) mL/min/1.73 m^2"}, {"measurement": "Incidence of WRF at EOT", "setting": "[7]", "result": 33.9, "unit": "%"}, {"measurement": "Recovery of baseline renal function", "setting": "[7]", "result": "10 (52.6) n (%)"}, {"measurement": "WRF (worsened renal function) at the end of treatment", "setting": "[7]", "result": "20 (33.9) n (%)"}, {"measurement": "WRF at EOT, RIFLE class F (Failure)", "setting": "[7]", "result": "3 (15) n (%)"}, {"measurement": "WRF at EOT, RIFLE class I (Injury)", "setting": "[7]", "result": "10 (50) n (%)"}, {"measurement": "WRF at EOT, RIFLE class R (Risk)", "setting": "[7]", "result": "3 (15) n (%)"}, {"measurement": "WRF reversible, patients", "setting": "[7]", "result": 52.6, "unit": "%"}, {"measurement": "OR of DOT (days of CMS treatment) as risk factor for colistin-associated nephrotoxicity at the end of treatment", "setting": "[2]; p = 0.069", "result": 1.11}, {"measurement": "Clinical cure, patients", "setting": "[8]; 43 of 59 CKD patients, iv CMS, XDR P. aeruginosa infections", "result": 72.9, "unit": "%"}, {"measurement": "Patients with clinical cure", "setting": "[8]; [10]", "result": "3 (60) n (%)"}, {"measurement": "Patients with clinical failure", "setting": "[8]; [10]", "result": "2 (40) n (%)"}, {"measurement": "Patients with clinical cure", "setting": "[8]; [11]", "result": "15 (93.6) n (%)"}, {"measurement": "Patients with clinical failure", "setting": "[8]; [11]", "result": "1 (6.25) n (%)"}, {"measurement": "Patients with clinical cure", "setting": "[8]; diagnosis bacteremia", "result": "3 (100) n (%)"}, {"measurement": "Patients with clinical failure", "setting": "[8]; diagnosis bacteremia", "result": "0 (0) n (%)"}, {"measurement": "Patients with clinical cure", "setting": "[8]; diagnosis others", "result": "4 (57.1) n (%)"}, {"measurement": "Patients with clinical failure", "setting": "[8]; diagnosis others", "result": "3 (42.9) n (%)"}, {"measurement": "Patients with clinical cure", "setting": "[8]; diagnosis pneumonia", "result": "7 (50) n (%)"}, {"measurement": "Patients with clinical failure", "setting": "[8]; diagnosis pneumonia", "result": "7 (50) n (%)"}, {"measurement": "Patients with clinical cure", "setting": "[8]; diagnosis tracheobronchitis", "result": "11 (78.6) n (%)"}, {"measurement": "Patients with clinical failure", "setting": "[8]; diagnosis tracheobronchitis", "result": "3 (21.43) n (%)"}, {"measurement": "CMS dose renally excreted in the urine", "setting": "[3]; during the first 24 h after dosing, ref [21]", "result": "about 60%"}, {"measurement": "Urinary excretion of CMS after intravenous administration", "setting": "[3]; patients, within the first 6 h, ref [22]", "result": "rapid urinary excretion"}]}]}
